Experimental data as given in PubChem BioAssay (NCI).
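Grown in 96-well plates, cells were treated for 48 hours with each compound at five concentrations. Insufficient inhibition: endpoint recorded as highest concentration tested. The concentration for full growth arrest is given as TGI.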

Columns and labels:
Test in all cases: DTP human tumour cell line panel, 48 h
[1] = test system: HL-60(TB) leukemia
[2] = test system: CCRF-CEM leukemia
[3] = test system: SK-OV-3 ovarian
[4] = test system: KM20L2 colon
[5] = test system: SN12C renal
[6] = test system: SNB-75 CNS
[7] = test system: SK-MEL-28 melanoma
[8] = test system: LOX IMVI melanoma
[9] = test system: U251 CNS
[10] = test system: NCI-H522 lung
[11] = test system: CAKI-1 renal
[12] = test system: SF-295 CNS
[13] = test system: A498 renal
[14] = test system: HOP-62 NSCLC
[15] = test system: SF-539 CNS
[16] = test system: M19-MEL melanoma
[17] = test system: SNB-19 CNS
[18] = test system: MALME-3M melanoma
[19] = test system: UACC-257 melanoma
[20] = test system: HOP-92 NSCLC
[21] = test system: HCT-15 colon
[22] = test system: RXF 393 renal
[23] = test system: UO-31 renal
[24] = test system: LXFL 529 NSCLC
[25] = test system: SNB-78 CNS
[26] = test system: KM12 colon
[27] = test system: XF 498 CNS
[28] = test system: SK-MEL-2 melanoma
[29] = test system: ACHN renal
[30] = test system: MOLT-4 leukemia
[31] = test system: HCT-116 colon
[32] = test system: RPMI-8226 leukemia
[33] = test system: DMS 114 small cell lung
[34] = test system: A549 NSCLC
[35] = test system: HCC-2998 colon
[36] = test system: OVCAR-5 ovarian
[37] = test system: HT29 colon
[38] = test system: IGROV1 ovarian
[39] = test system: M14 melanoma
[40] = test system: OVCAR-3 ovarian
[41] = test system: SK-MEL-5 melanoma
[42] = test system: NCI-H226 lung
[43] = test system: OVCAR-4 ovarian
[44] = test system: UACC-62 melanoma
[45] = test system: EKVX NSCLC
[46] = test system: SF-268 CNS
[47] = test system: HOP-18 NSCLC
[48] = test system: SR leukemia
[49] = test system: OVCAR-8 ovarian
[50] = test system: NCI-H23 lung
[51] = test system: 786-0 renal
[52] = test system: COLO 205 colon
[53] = test system: DLD-1 colon
[54] = test system: NCI-H460 lung
[55] = test system: K-562 leukemia
[56] = test system: TK-10 renal
[57] = test system: SW-620 colon
[58] = test system: DMS 273 small cell lung

In the case of `CCOC(=O)C1(C)CCC(C(=O)OC)C1=O` (configuration not stated), the TGI [1] is reported as > 100 µM, the TGI [2] is reported as 57.7 µM and the TGI [3] is reported as > 100 µM. The TGI [4] was > 100 µM, the TGI [5] was > 100 µM and the TGI [6] was > 100 µM. The TGI [7] was > 100 µM, the TGI [8] was 32.9 µM and the TGI [9] was > 100 µM. For the same molecule, the TGI [10] was 31.7 µM, the TGI [11] was > 100 µM and the TGI [12] was > 100 µM. For the same molecule, the TGI [13] was > 100 µM, the TGI [14] was > 100 µM and the TGI [15] was > 100 µM. The TGI [16] was > 100 µM, the TGI [17] was > 100 µM and the TGI [18] was > 100 µM. The TGI [19] was > 100 µM, the TGI [20] was > 100 µM and the TGI [21] was 43.1 µM. For the same molecule, the TGI [22] was > 100 µM, the TGI [23] was > 100 µM and the TGI [24] was > 100 µM. The TGI [25] was > 100 µM, the TGI [26] was > 100 µM and the TGI [27] was > 100 µM. For the same molecule, the TGI [28] was > 100 µM, the TGI [29] was > 100 µM and the TGI [30] was > 100 µM. For the same molecule, the TGI [31] was > 100 µM, the TGI [32] was > 100 µM and the TGI [33] was 35.1 µM. The TGI [34] was > 100 µM, the TGI [35] was > 100 µM and the TGI [36] was > 100 µM. For the same molecule, the TGI [37] was > 100 µM, the TGI [38] was > 100 µM and the TGI [39] was > 100 µM. The TGI [40] was > 100 µM, the TGI [41] was > 100 µM and the TGI [42] was > 100 µM. For the same molecule, the TGI [43] was > 100 µM, the TGI [44] was > 100 µM and the TGI [45] was > 100 µM. For the same molecule, the TGI [46] was > 100 µM, the TGI [47] was > 100 µM and the TGI [48] was 51 µM. The TGI [49] was > 100 µM, the TGI [50] was > 100 µM and the TGI [51] was > 100 µM. For the same molecule, the TGI [52] was > 100 µM, the TGI [53] was > 100 µM and the TGI [54] was 28.6 µM. The TGI [55] was > 100 µM and the TGI [56] was > 100 µM.
For `COc1cc(Nc2nc3cc(C)ccc3nc2-c2ccccc2)cc(OC)c1OC`, the TGI [1] was 54.5 µM, the TGI [2] was > 100 µM and the TGI [3] was > 100 µM. For the same molecule, the TGI [4] was > 100 µM, the TGI [5] was > 100 µM and the TGI [6] was > 100 µM. The TGI [57] was > 100 µM, the TGI [7] was 55.1 µM and the TGI [8] was > 100 µM. The TGI [9] was > 100 µM, the TGI [10] was 90.6 µM and the TGI [11] was > 100 µM. For the same molecule, the TGI [12] was 56 µM, the TGI [13] was > 100 µM and the TGI [16] was 71 µM. The TGI [17] was > 100 µM, the TGI [18] was 56.8 µM and the TGI [19] was > 100 µM. The TGI [20] was > 100 µM, the TGI [21] was 48.7 µM and the TGI [23] was 77.7 µM. The TGI [24] was > 100 µM, the TGI [26] was > 100 µM and the TGI [27] was 42.1 µM. For the same molecule, the TGI [28] was 45.3 µM, the TGI [29] was > 100 µM and the TGI [30] was 76.6 µM. For the same molecule, the TGI [31] was 45.2 µM, the TGI [33] was 31.5 µM and the TGI [34] was > 100 µM. The TGI [35] was 44.2 µM, the TGI [36] was > 100 µM and the TGI [37] was 33.7 µM. The TGI [38] was > 100 µM, the TGI [39] was > 100 µM and the TGI [40] was 41.8 µM. For the same molecule, the TGI [41] was 35.1 µM, the TGI [43] was > 100 µM and the TGI [44] was 63.6 µM. The TGI [45] was > 100 µM, the TGI [46] was > 100 µM and the TGI [47] was 73.1 µM. For the same molecule, the TGI [48] was 69.9 µM, the TGI [49] was > 100 µM and the TGI [50] was 57 µM. The TGI [51] was 33.9 µM, the TGI [52] was 43.7 µM and the TGI [54] was 40 µM. For the same molecule, the TGI [58] was 49.6 µM, the TGI [55] was > 100 µM and the TGI [56] was > 100 µM.
